The test system of data set [1] is mouse IgG (IgG-AF647). The data set is described as follows: Cellular uptake of IgG-AF647 in HUH7 cells. Type of data set: cell-based. The settings on record: HUH7 cells incubated with inhibitor. As for the experimental part: To assess whether a bifunctional molecule comprising ASGPR ligands could indeed shuttle cargo to lysosomes in hepatocytes, an assay schematically illustrated in FIG. 21 was employed. A bifunctional molecule comprising an anti-mouse IgG antibody conjugated to a poly(GalNAc-co-Ala) polymer was tested to determine whether the bifunctional molecule could shuttle extracellular fluorescent-labeled mouse IgG (IgG-AF647) into the intracellular compartment of hepatocytes. […] HEPG2 cells (hepatocellular carcinoma cell line) were incubated with 50 nM IgG-AF647 and 25 nM of anti-mouse conjugates for 1 hour. Cellular uptake was analyzed by flow cytometry. As shown by the bar graph, an approximately 8-fold increase in cell fluorescence was observed using the GalNAc-containing conjugate while the M6Pn-containing conjugate induced 2-fold increase over background.
Shown in FIG. 22 are results from the assay described for FIG. 21 but in HUH7 cells (another hepatocellular carcinoma cell line). […] In addition, controls were included in which the cells were incubated with M6PR or ASGPR inhibitors (monomeric M6P (mM6P) and monomeric GalNAc (mGalNAc), respectively).

The target in data set [2] is cation independent M6PR (CIM6PR) (Homo sapiens, UniProt P11717). The settings on record: relative to mannose-6-phosphate glycans; cited from earlier work.
The conditions of data set [3]: cited from earlier work.

cation independent M6PR (CIM6PR), sequence (P11717 41-2491): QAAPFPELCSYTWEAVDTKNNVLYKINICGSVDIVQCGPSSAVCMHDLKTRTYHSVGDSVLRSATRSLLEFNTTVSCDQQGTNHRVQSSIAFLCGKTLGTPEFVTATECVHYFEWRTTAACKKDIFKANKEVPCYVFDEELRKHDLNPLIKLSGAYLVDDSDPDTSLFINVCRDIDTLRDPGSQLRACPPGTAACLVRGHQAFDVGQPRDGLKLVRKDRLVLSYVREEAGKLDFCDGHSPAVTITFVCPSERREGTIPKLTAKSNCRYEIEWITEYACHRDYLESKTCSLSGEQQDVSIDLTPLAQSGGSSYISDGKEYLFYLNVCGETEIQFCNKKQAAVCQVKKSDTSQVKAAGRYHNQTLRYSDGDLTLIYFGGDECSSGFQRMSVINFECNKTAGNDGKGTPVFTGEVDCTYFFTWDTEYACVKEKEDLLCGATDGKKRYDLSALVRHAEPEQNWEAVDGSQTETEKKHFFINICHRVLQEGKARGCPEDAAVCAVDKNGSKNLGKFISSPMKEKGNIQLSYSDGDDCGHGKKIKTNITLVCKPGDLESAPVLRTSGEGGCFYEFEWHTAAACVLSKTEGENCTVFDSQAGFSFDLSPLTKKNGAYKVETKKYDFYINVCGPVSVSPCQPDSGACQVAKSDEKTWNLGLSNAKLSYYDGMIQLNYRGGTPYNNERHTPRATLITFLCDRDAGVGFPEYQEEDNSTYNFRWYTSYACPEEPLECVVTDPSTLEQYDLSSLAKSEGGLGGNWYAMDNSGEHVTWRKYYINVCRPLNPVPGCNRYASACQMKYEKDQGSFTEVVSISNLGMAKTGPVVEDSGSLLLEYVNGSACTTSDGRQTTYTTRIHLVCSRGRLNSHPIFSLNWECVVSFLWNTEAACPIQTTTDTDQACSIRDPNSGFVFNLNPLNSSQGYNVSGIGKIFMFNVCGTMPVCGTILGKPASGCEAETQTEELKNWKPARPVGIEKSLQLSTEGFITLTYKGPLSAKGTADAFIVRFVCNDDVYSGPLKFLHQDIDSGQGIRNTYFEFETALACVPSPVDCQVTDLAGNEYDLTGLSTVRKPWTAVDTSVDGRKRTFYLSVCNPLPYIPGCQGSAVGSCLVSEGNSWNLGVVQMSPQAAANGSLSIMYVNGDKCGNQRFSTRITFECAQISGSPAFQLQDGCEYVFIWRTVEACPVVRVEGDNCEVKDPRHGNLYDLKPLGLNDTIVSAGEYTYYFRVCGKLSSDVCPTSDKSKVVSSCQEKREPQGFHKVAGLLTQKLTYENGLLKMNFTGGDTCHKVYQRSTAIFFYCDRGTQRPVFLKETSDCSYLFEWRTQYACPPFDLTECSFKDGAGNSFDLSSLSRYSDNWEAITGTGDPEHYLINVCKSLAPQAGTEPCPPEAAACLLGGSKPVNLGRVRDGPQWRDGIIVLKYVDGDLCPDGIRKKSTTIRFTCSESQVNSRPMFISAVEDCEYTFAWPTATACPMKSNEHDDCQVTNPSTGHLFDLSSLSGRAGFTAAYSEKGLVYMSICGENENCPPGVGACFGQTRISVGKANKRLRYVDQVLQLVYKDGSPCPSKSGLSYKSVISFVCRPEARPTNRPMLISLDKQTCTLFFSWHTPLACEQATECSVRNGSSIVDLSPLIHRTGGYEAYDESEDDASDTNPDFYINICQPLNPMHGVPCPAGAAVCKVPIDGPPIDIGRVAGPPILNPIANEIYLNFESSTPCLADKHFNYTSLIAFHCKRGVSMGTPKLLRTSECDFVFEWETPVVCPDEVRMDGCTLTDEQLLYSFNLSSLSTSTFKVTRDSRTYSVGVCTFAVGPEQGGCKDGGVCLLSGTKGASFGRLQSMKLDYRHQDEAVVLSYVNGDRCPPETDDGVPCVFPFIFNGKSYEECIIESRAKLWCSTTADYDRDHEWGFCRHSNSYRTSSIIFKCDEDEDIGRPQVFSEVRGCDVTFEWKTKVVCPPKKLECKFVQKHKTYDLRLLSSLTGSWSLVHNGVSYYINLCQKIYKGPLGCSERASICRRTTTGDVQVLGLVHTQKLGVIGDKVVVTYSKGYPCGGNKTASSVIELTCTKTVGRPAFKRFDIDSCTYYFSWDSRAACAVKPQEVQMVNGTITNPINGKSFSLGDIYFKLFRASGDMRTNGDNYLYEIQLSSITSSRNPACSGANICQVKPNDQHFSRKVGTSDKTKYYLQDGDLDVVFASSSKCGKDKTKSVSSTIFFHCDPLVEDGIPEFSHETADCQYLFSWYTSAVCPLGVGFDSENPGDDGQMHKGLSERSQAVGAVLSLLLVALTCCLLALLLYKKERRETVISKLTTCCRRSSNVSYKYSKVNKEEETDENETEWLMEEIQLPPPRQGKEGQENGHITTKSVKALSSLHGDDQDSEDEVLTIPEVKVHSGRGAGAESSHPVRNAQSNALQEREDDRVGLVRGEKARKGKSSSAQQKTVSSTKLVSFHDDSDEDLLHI

Consider `CC(=O)N[C@H]1C(O)O[C@H](CO)[C@H](O)[C@@H]1O` (mixture of isomers) [mGalNAc, monomeric GalNAc], for which, in data set [1], the “uptake of IgG-AF647 with conjugates in presence of M6PR or ASGPR inhibitor” value is recorded as “Uptake was reduced”.

Regarding `C=CC(=O)OC[C@@H](O)[C@@H](O)[C@H](O)[C@H](O)C=O` [Mannose-6-acrylate glycans, Mannose-6-acrylate], in data set [2], the “relative binding affinity for the CIM6PR, compared to mannose-6-phosphate glycans” value is on record as 0.7. In data set [3], the “serum stability compared to mannose-6-phosphate glycans” value was “better serum stability”.

As to `O=P(O)(O)OC[C@H]1OC(O)[C@@H](O)[C@@H](O)[C@@H]1O` (some centres unmarked) [mM6P, monomeric M6P], the “uptake of IgG-AF647 with conjugates in presence of M6PR or ASGPR inhibitor” value in data set [1] is recorded as “Uptake was reduced”.

With “Mannose-6-carboxylate [Mannose-6-carboxylate glycans]”, the “relative binding affinity for the CIM6PR, compared to mannose-6-phosphate glycans” value in data set [2] is given as 0.3.

Source of the values: US11787865B2, “Bifunctional molecules for lysosomal targeting and related compositions and methods” (The Board of Trustees of the Leland Stanford Junior …, priority 2018, dated 2023).
